Laboratory results: patent US8785412B2, “Method for inducing cancer cell apoptosis or inhibiting the cancer cell migration” (National Tsing Hua University, priority 2011, dated 2014)

How the values were obtained:
Hep3B = experiment: Wound healing assay (cell motility), Hep3B; format: cell-based; settings: Hep3B, 0, 18 and 24 hours
Procedure: (§1) To examine whether the knockdown of hRPIA in cancer cells reduces cell motility, we used specific siRNA to knock down hRPIA expression. To quantify the cancer cell survival rate under the treatment of siRNA against hRPIA which sequence is: […] (SEQ NO. 1) and; […] (SEQ NO. 2) for 0, 18 and 24 hours, we perform wound healing assay to examine the cell motility of hRPIA in Hep3B which were treated with siRNA-hRPIA (cultured in 10% fetal bovine serum with DMEM in 37° C., 5% CO2 for 48 hours) as shown in FIG. 12 respectively. As shown in the figs, the cell motility is lower after adding siRNA.

SW480 colon cancer cells = experiment: MTT cell viability assay, SW480; format: cell-based; settings: for cell viability by MTT assay after hRPIA knockdown: SW480, 20 nM siRNA
Excerpt: (§2) Further, we used 3-(4,5-dimethylthiazol-2-yl)-2,5-diphenyltetrazolium bromide (MTT) assay to examine whether the knockdown of hRPIA reduces cancer cell viability. […] A similar data was obtained in SW620 (FIG. 5B).
(§3) Further, we used 3-(4,5-dimethylthiazol-2-yl)-2,5-diphenyltetrazolium bromide (MTT) assay to examine whether the over-expression of hRPIA in cancer cells induces cancer cell viability. […] A similar data was obtained in SW620 (FIG. 9B).
(§4) To examine the influence of chemotherapeutic agents on cell growth of colon cancer cell after knocking down of hRPIA, we used specific siRNA to knock down hRPIA expression and then added 5-fluorouracil (5-FU) by 0, 5, 15, 25 μg/mL into SW480 and SW620. Further, we used 3-(4,5-dimethylthiazol-2-yl)-2,5-diphenyltetrazolium bromide (MTT) assay to examine whether the over-expression of hRPIA in cancer cells induces cancer cell viability.

SW620 colon cancer cells = experiment: MTT cell viability assay, SW620; format: cell-based
Excerpt: as §2, §3, §4

β-catenin = experiment: Western blot of β-catenin after hRPIA siRNA knockdown; format: cell-based
Excerpt: (§5) To examine whether the knockdown of hRPIA in hepatic cancer cells induces cell apoptosis, we used specific siRNA which sequence is: […] (SEQ NO. 1) and; […] (SEQ NO. 2) to knock down hRPIA expression. Next, we used western blot to examine the protein level of caspase-3 and β-catenin. […] A similar data was obtained in PLC5 and HepG2 (FIG. 14B and FIG. 14C respectively).
(§6) To examine whether the knockdown of hRPIA in colon cancer cells induces cell apoptosis, we used specific siRNA which sequence is: […] (SEQ NO. 1) and; […] ([…]) to knock down hRPIA expression. Next, we used western blot to examine the protein level of caspase-3 and β-catenin.

Hep3B liver cancer cells = experiment: MTT cell viability assay, Hep3B; format: cell-based
Excerpt: (§7) Further, we used 3-(4,5-dimethylthiazol-2-yl)-2,5-diphenyltetrazolium bromide (MTT) assay to examine whether the knockdown of hRPIA reduces cancer cell viability. […] A similar data was obtained in PLC5 and HepG2 (FIG. 3B and FIG. 3C respectively).
(§8) Further, we used 3-(4,5-dimethylthiazol-2-yl)-2,5-diphenyltetrazolium bromide (MTT) assay to examine whether the over-expression of hRPIA in cancer cells induces cancer cell viability. […] A similar data was obtained in PLC5 and HepG2 (FIG. 7B and FIG. 7C respectively).
as §4, with “liver” for “colon”, “knockdown” for “knock down”, “Hep3B, PLC5” for “SW480”, “HepG2.” for “SW620.”

SW480 = experiment: Wound healing assay (cell motility), SW480; format: cell-based; settings: SW480, 0, 14 and 24 hours
Procedure: as §1, with “hRPIA in colon cancer cells” for “hRPIA in cancer cells”, “for 0, 14 and 24” for “for 0, 18 and 24”, “hRPIA in SW480 which were” for “hRPIA in Hep3B which were”, “DMEM in 37 °C, 5% CO2” for “DMEM in 37° C., 5% CO2”, “in FIG. 13 respectively. As” for “in FIG. 12 respectively. As”

hRPIA = experiment: Western blot of hRPIA protein level after siRNA knockdown or pcDNA3-hRPIA transfection; format: cell-based, human; settings: siRNA knockdown, 48 hours
PLC5 liver cancer cells = experiment: MTT cell viability assay, PLC5; format: cell-based; settings: PLC5, 5-FU 0, 5, 15, 25 μg/mL, vs si-negative control transfected cells
Excerpt: as §7, §8
as §4, with “liver” for “colon”, “knockdown” for “knock down”, “Hep3B, PLC5” for “SW480”, “HepG2.” for “SW620.”

caspase-3 = experiment: Western blot of caspase-3 after hRPIA siRNA knockdown; format: cell-based
Excerpt: as §5, §6

HepG2 liver cancer cells = experiment: MTT cell viability assay, HepG2; format: cell-based; settings: HepG2, 5-FU 0, 5, 15, 25 μg/mL, vs si-negative control transfected cells
Excerpt: as §7, §8
as §4, with “liver” for “colon”, “knockdown” for “knock down”, “Hep3B, PLC5” for “SW480”, “HepG2.” for “SW620.”

Substance: siRNA-hRPIA: siRNA against hRPIA, sequence UUCACUUCACUCCAUUUGUGUACCC (SEQ NO. 1) and GGGUACACAAAUGGAGUGAAGUGAA (SEQ NO. 2) (listed as RNA, chemistry not given here)
- cell motility (wound healing assay) (Hep3B): lower
- cell viability by MTT assay after hRPIA knockdown (SW480 colon cancer cells): significant reduction in cell viability
- cell viability by MTT assay after hRPIA knockdown (SW480 colon cancer cells; listed as siRNAs against hRPIA): significantly reduced cell viability
- cytotoxicity caused by 5-fluorouracil after hRPIA knockdown (MTT) (SW480 colon cancer cells; SW480, 5-FU 0, 5, 15, 25 μg/mL, vs si-negative control transfected cells): significantly enhanced the cytotoxicity
- cell viability by MTT assay after hRPIA knockdown (SW620 colon cancer cells; SW620, 20 nM siRNA): significantly reduced cell viability
- cytotoxicity caused by 5-fluorouracil after hRPIA knockdown (MTT) (SW620 colon cancer cells; SW620, 5-FU 0, 5, 15, 25 μg/mL, vs si-negative control transfected cells): significantly enhanced the cytotoxicity
- β-catenin protein level (western blot) (β-catenin; Hep3B): slightly reduction
- β-catenin protein level (western blot) (β-catenin; HepG2): significant reduction
- β-catenin protein level (western blot) (β-catenin; PLC5): slightly reduction
- β-catenin protein level (western blot) (β-catenin; SW480): significant reduction
- cell viability by MTT assay after hRPIA knockdown (Hep3B liver cancer cells; 20 nM siRNA): significant reduction in cell viability
- cytotoxicity caused by 5-fluorouracil after hRPIA knockdown (MTT) (Hep3B liver cancer cells; 5-FU 0, 5, 15, 25 μg/mL, vs si-negative control transfected cells): significantly enhanced the cytotoxicity
- cell motility (wound healing assay) (SW480): lower
- hRPIA protein level (western blot) (hRPIA; Hep3B liver cancer cells, vs si-negative control): lower
- hRPIA protein level (western blot) (hRPIA; HepG2 liver cancer cells): lower
- hRPIA protein level (western blot) (hRPIA; PLC5 liver cancer cells, vs si-negative control): lower
- hRPIA protein level (western blot) (hRPIA; SW480 colon cancer cells): lower
- hRPIA protein level (western blot) (hRPIA; SW620 colon cancer cells): lower
- cytotoxicity caused by 5-fluorouracil after hRPIA knockdown (MTT) (PLC5 liver cancer cells): significantly enhanced the cytotoxicity
- caspase-3 protein level (western blot) (caspase-3; Hep3B, 48 hours): increased activity of caspase-3
- caspase-3 protein level (western blot) (caspase-3; HepG2): increases caspase-3 expression
- caspase-3 protein level (western blot) (caspase-3; PLC5): increases caspase-3 expression
- caspase-3 protein level (western blot) (caspase-3; SW480, 48 hours): increased activity of caspase-3
- cytotoxicity caused by 5-fluorouracil after hRPIA knockdown (MTT) (HepG2 liver cancer cells): significantly enhanced the cytotoxicity
